Measurements from patent publication US20240158446A1, “CYCLIC COMPOUND HAVING SELECTIVE INHIBITORY ACTION ON KRAS OVER HRAS AND NRAS” (CHUGAI SEIYAKU KABUSHIKI KAISHA, priority 2021, published 2024).
Read-outs that look alike come from different tables or passages of the source. Where a SMILES comes first, the peptide text is derived from it. Bridges are numbered along the chain shown (N, C = ends). [ ]: non-standard residue; d: D form. The star is where a group is joined. hPhe(3,5-F2-4-CF3) = N[C@@H](CCc1cc(F)c(C(F)(F)F)c(F)c1)C(=O)O; hPhe(3-Cl-4-CF3) = N[C@@H](CCc1ccc(C(F)(F)F)c(Cl)c1)C(=O)O; NPrPhe(4-CF3) = CCCN[C@@H](Cc1ccc(C(F)(F)F)cc1)C(=O)O; Pro(4-spirocPr) = O=C(O)[C@@H]1CC2(CC2)CN1; NMeGly(cPent) = CN[C@H](C(=O)O)C1CCCC1; Pro(4,4-F2) = O=C(O)[C@@H]1CC(F)(F)CN1; Ac4c(3,3-F2) = NC1(C(=O)O)CC(F)(F)C1; Aze(3S-Me) = C[C@H]1CN[C@@H]1C(=O)O; Hyp = O=C(O)[C@@H]1C[C@@H](O)CN1; NMeD = CN[C@@H](CC(=O)O)C(=O)O; NMeL = CN[C@@H](CC(C)C)C(=O)O; Morpholide = C1CN(*)CCO1; NMeA = CN[C@@H](C)C(=O)O; Ac5c = NC1(C(=O)O)CCCC1; Aze = O=C(O)[C@@H]1CCN1; Ac4c = NC1(C(=O)O)CCC1; Sar = CNCC(=O)O

Experiments:
[1] = target: GDP-bound HRAS wild-type protein (Homo sapiens, UniProt P01112); test: Binding to HRAS by surface plasmon resonance (SPR), Single Cycle Kinetics; conditions: SPR, GDP-bound HRAS wild-type protein vs GDP-bound KRAS wild-type protein
Chain of GDP-bound HRAS wild-type protein (P01112 whole entry): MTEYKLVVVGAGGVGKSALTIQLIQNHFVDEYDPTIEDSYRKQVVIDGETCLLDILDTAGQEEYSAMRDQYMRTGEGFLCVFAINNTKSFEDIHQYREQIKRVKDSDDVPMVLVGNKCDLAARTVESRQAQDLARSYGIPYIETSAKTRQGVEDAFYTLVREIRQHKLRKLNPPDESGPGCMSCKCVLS

[2] = target: GDP-bound KRAS wild-type protein (Homo sapiens, UniProt P01116); test: Binding to KRAS by surface plasmon resonance (SPR), Single Cycle Kinetics; conditions: GDP-bound KRAS wild-type protein, read-out: KRAS KD
Chain of GDP-bound KRAS wild-type protein (P01116 whole entry): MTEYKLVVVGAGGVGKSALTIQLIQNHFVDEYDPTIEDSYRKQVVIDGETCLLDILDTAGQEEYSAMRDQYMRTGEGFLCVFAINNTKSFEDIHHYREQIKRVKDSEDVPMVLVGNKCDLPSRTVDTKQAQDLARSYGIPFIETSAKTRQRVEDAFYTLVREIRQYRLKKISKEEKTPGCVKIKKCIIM

[3] = target: GDP-bound NRAS wild-type protein (Homo sapiens, UniProt P01111); test: Binding to NRAS by surface plasmon resonance (SPR), Single Cycle Kinetics; conditions: SPR, GDP-bound NRAS wild-type protein vs GDP-bound KRAS wild-type protein
Chain of GDP-bound NRAS wild-type protein (P01111 whole entry): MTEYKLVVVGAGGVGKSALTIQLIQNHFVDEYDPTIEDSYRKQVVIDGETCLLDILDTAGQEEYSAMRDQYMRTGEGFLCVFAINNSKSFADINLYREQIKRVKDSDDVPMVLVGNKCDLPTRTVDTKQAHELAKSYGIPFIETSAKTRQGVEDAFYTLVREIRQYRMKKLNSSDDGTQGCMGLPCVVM

[4] = SPR Single Cycle Kinetics, 1:1 binding model

SMILES | Kd [2, 4] | Kd ([2]; SPR, Single Cycle Kinetics) | HRAS/KRAS (ratio of KD value for HRAS to KD value for KRAS) [1] | NRAS/KRAS (ratio of KD value for NRAS to KD value for KRAS) [3] | HRAS/KRAS (ratio of KD value with respect to HRAS to KD value with respect to KRAS) [1] | NRAS/KRAS (ratio of KD value with respect to NRAS to KD value with respect to KRAS) [3]
CCO[C@@H]1C[C@H]2C(=O)NC3(CCC3)C(=O)N(C)[C@@H](C3CCCC3)C(=O)N(C)[C@H](C(=O)N(C)C)CC(=O)N(C)[C@@H](CC)C(=O)N[C@@H]([C@@H](C)CC)C(=O)N(C)CC(=O)N(C)[C@H]3CCCCCN(C3=O)[C@@H](Cc3ccc(C(F)(F)F)cc3)C(=O)N(C)CC(=O)N[C@@H](CCc3c(F)c(F)c(C(F)(F)F)c(F)c3F)C(=O)N2C1 [PP0891] | – | 620 pM | B (a compound having 3 or more and less than 10 is denoted as B) | B (a compound having 3 or more and less than 10 is denoted as B) | – | –
CC[C@H](C)[C@@H]1NC(=O)[C@H](CC(C)C)NC(=O)C[C@@H](C(=O)N2CCOCC2)N(C)C(=O)[C@H](C2CCCC2)N(C)C(=O)C2(CCCC2)NC(=O)[C@@H]2CCCN2C(=O)[C@H](CCc2cc(F)c(C(F)(F)F)c(F)c2)NC(=O)CN(C)C(=O)[C@H](Cc2ccc(C(F)(F)F)cc2)N2CCCC[C@@H](C2=O)N(C)C(=O)CN(C)C1=O [PP0590] | 270 pM | – | – | – | B (a compound having 3 or more and less than 10 is denoted as B) | C (A compound having a KD ratio of 0.1 or more and less than 3 is denoted as C)
CCCN1C(=O)CN(C)C(=O)CNC(=O)[C@H]([C@@H](C)CC)NC(=O)[C@H](CC(C)C)N(C)C(=O)C[C@@H](C(=O)N(C)C)NC(=O)[C@H](C2CCCC2)N(C)C(=O)C2(CCC2)NC(=O)[C@@H]2C[C@@H](OCC)CN2C(=O)[C@H](CCc2ccc(C(F)(F)F)c(Cl)c2)NC(=O)CN(C)C(=O)[C@@H]1Cc1ccc(C(F)(F)F)cc1 [PP0366] ([NMeL]IG[Sar][NPrPhe(4-CF3)][Sar][hPhe(3-Cl-4-CF3)][Hyp](Et)[Ac4c][NMeGly(cPent)]D-NMe2; lactam N-11) | 380 pM | – | B (a compound having 3 or more and less than 10 is denoted as B) | B (a compound having 3 or more and less than 10 is denoted as B) | – | –
CCCN1C(=O)[C@@H]2CCN2C(=O)CN(C)C(=O)[C@H]([C@@H](C)CC)NC(=O)[C@H](CC(C)C)N(C)C(=O)C[C@@H](C(=O)N2CCOCC2)N(C)C(=O)[C@H](C2CCCC2)N(C)C(=O)C2(CC(F)(F)C2)NC(=O)[C@@H]2CCCN2C(=O)[C@H](CCc2cc(F)c(C(F)(F)F)c(F)c2)NC(=O)CN(C)C(=O)[C@@H]1Cc1ccc(C(F)(F)F)cc1 [PP0802] ([NMeL]I[Sar][Aze][NPrPhe(4-CF3)][Sar][hPhe(3,5-F2-4-CF3)]P[Ac4c(3,3-F2)][NMeGly(cPent)][NMeD]-Morpholide; lactam N-11) | 82 pM | – | – | – | B (a compound having 3 or more and less than 10 is denoted as B) | C (A compound having a KD ratio of 0.1 or more and less than 3 is denoted as C)
CC[C@H](C)[C@@H]1NC(=O)[C@H](CC)N(C)C(=O)C[C@@H](C(=O)N(C)C)N(C)C(=O)[C@H](C2CCCC2)N(C)C(=O)C2(CCC2)NC(=O)[C@@H]2CCN2C(=O)[C@H](CCc2cc(F)c(C(F)(F)F)c(F)c2)NC(=O)CN(C)C(=O)[C@H](Cc2ccc(C(F)(F)F)cc2)N2CCCC[C@@H](C2=O)N(C)C(=O)CN(C)C1=O [PP0657] | 76 pM | – | – | – | B (a compound having 3 or more and less than 10 is denoted as B) | B (a compound having 3 or more and less than 10 is denoted as B)
CCO[C@@H]1C[C@H]2C(=O)NC3(CCC3)C(=O)N(C)[C@@H](C3CCCC3)C(=O)N(C)[C@H](C(=O)N(C)C)CC(=O)N(C)[C@@H](CC3CCC3)C(=O)N[C@@H]([C@@H](C)CC)C(=O)N(C)CC(=O)N(C)[C@H]3CCCCCN(C3=O)[C@@H](Cc3ccc(C(F)(F)F)cc3)C(=O)N(C)CC(=O)N[C@@H](CCc3cc(F)c(C(F)(F)F)c(F)c3)C(=O)N2C1 [PP0668] | 380 pM | – | – | – | B (a compound having 3 or more and less than 10 is denoted as B) | B (a compound having 3 or more and less than 10 is denoted as B)
CC[C@H](C)[C@@H]1NC(=O)[C@H](CC(C)C)N(C)C(=O)C[C@@H](C(=O)N2CCOCC2)N(C)C(=O)[C@H](C2CCCC2)N(C)C(=O)C2(CCC2)NC(=O)[C@@H]2CC(F)(F)CN2C(=O)[C@H](CCc2cc(F)c(C(F)(F)F)c(F)c2)NC(=O)CN(C)C(=O)[C@H](Cc2ccc(C(F)(F)F)cc2)N2CCCC[C@@H](C2=O)N(C)C(=O)CN(C)C1=O [PP0575] | 23 pM | – | – | – | B (a compound having 3 or more and less than 10 is denoted as B) | B (a compound having 3 or more and less than 10 is denoted as B)

The next lines start with results.

Kd [2, 4] | Kd ([2]; SPR, Single Cycle Kinetics) | SMILES | HRAS/KRAS (ratio of KD value for HRAS to KD value for KRAS) [1] | NRAS/KRAS (ratio of KD value for NRAS to KD value for KRAS) [3] | HRAS/KRAS (ratio of KD value with respect to HRAS to KD value with respect to KRAS) [1] | NRAS/KRAS (ratio of KD value with respect to NRAS to KD value with respect to KRAS) [3]
550 pM | – | CCCN1C(=O)[C@@H]2[C@@H](C)CN2C(=O)[C@H](C)N(C)C(=O)[C@H]([C@@H](C)CC)NC(=O)[C@H](CC(C)C)N(C)C(=O)C[C@@H](C(=O)N2CCOCC2)N(C)C(=O)[C@H](C2CCCC2)N(C)C(=O)C2(CCCC2)NC(=O)[C@@H]2CCCN2C(=O)[C@H](CCc2ccc(C(F)(F)F)c(Cl)c2)NC(=O)CN(C)C(=O)[C@@H]1Cc1ccc(C(F)(F)F)cc1 [PP0141] ([NMeL]I[NMeA][Aze(3S-Me)][NPrPhe(4-CF3)][Sar][hPhe(3-Cl-4-CF3)]P[Ac5c][NMeGly(cPent)][NMeD]-Morpholide; lactam N-11) | B (a compound having 3 or more and less than 10 is denoted as B) | C (A compound having a KD ratio of 0.1 or more and less than 3 is denoted as C) | – | –
– | 480 pM | CCO[C@@H]1C[C@H]2C(=O)NC3(CC(C)(C)C3)C(=O)N(C)[C@@H](C(CC)CC)C(=O)N(C)[C@H](C(=O)N3CCCC3)CC(=O)N(C)[C@@H](COC)C(=O)N[C@@H]([C@@H](C)CC)C(=O)N(C)CC(=O)N(C)[C@H]3C/C=C\CCN(C3=O)[C@@H](Cc3ccc(C)cc3)C(=O)N(C)CC(=O)N[C@@H](CCc3ccc(C(F)(F)F)c(Cl)c3)C(=O)N2C1 [PP2144] | A (a compound having 10 or more and less than 20 is denoted as A) | AA (a compound having 20 or more is denoted as AA) | – | –
140 pM | – | CCCN1C(=O)CN(C)C(=O)CN(C)C(=O)[C@H]([C@@H](C)CC)NC(=O)[C@H](CC(C)C)N(C)C(=O)C[C@@H](C(=O)N2CCOCC2)N(C)C(=O)[C@H](C2CCCC2)N(C)C(=O)C2(CCCC2)NC(=O)[C@@H]2CC3(CC3)CN2C(=O)[C@H](CCc2ccc(C(F)(F)F)c(Cl)c2)NC(=O)CN(C)C(=O)[C@@H]1Cc1ccc(C(F)(F)F)cc1 [PP0261] ([NMeL]I[Sar][Sar][NPrPhe(4-CF3)][Sar][hPhe(3-Cl-4-CF3)][Pro(4-spirocPr)][Ac5c][NMeGly(cPent)][NMeD]-Morpholide; lactam N-11) | C (A compound having a KD ratio of 0.1 or more and less than 3 is denoted as C) | B (a compound having 3 or more and less than 10 is denoted as B) | – | –
1000 pM | – | CCCN1C(=O)CN(C)C(=O)CNC(=O)[C@H]([C@@H](C)CC)NC(=O)[C@H](CC(C)C)N(C)C(=O)C[C@@H](C(=O)N(C)C)NC(=O)[C@H](C2CCCC2)N(C)C(=O)C2(CCCC2)NC(=O)[C@@H]2CC(F)(F)CN2C(=O)[C@H](CCc2ccc(C(F)(F)F)c(Cl)c2)NC(=O)CN(C)C(=O)[C@@H]1Cc1ccc(C(F)(F)F)cc1 [PP0363] ([NMeL]IG[Sar][NPrPhe(4-CF3)][Sar][hPhe(3-Cl-4-CF3)][Pro(4,4-F2)][Ac5c][NMeGly(cPent)]D-NMe2; lactam N-11) | C (A compound having a KD ratio of 0.1 or more and less than 3 is denoted as C) | B (a compound having 3 or more and less than 10 is denoted as B) | – | –
– | 190 pM | CCCN(C)C(=O)[C@@H]1CC(=O)N(C)[C@@H](COCC)C(=O)N[C@@H]([C@@H](C)CC)C(=O)N(C)CC(=O)N(C)[C@H]2C/C=C\CCN(C2=O)[C@@H](Cc2ccc(C(F)(F)F)cc2)C(=O)N(C)CC(=O)N[C@@H](CCc2cc(F)c(C(F)(F)F)c(F)c2)C(=O)N2C[C@@H](C)C[C@H]2C(=O)NC2(CC(C)(C)C2)C(=O)N(C)[C@@H](C2CCCC2)C(=O)N1C [PP2041] | A (a compound having 10 or more and less than 20 is denoted as A) | A (a compound having 10 or more and less than 20 is denoted as A) | – | –
– | 120 pM | CCCN(C)C(=O)[C@@H]1CC(=O)N(C)[C@@H](C2CCC2)C(=O)N[C@@H]([C@@H](C)CC)C(=O)N(C)CC(=O)N(C)[C@H]2C/C=C\CCN(C2=O)[C@@H](Cc2ccc(C(F)(F)F)cc2)C(=O)N(C)CC(=O)N[C@@H](CCc2ccc(C(F)(F)F)c(OC)c2)C(=O)N2C[C@@H](C)C[C@H]2C(=O)NC2(CCC2)C(=O)N(C)[C@@H](C2CCCC2)C(=O)N1C [PP2072] | A (a compound having 10 or more and less than 20 is denoted as A) | A (a compound having 10 or more and less than 20 is denoted as A) | – | –
16 pM | – | CCO[C@@H]1C[C@H]2C(=O)NC3(CCC3)C(=O)N(C)[C@@H](C3CCCC3)C(=O)N(C)[C@H](C(=O)N(C)C)CC(=O)N(C)[C@@H](CC)C(=O)N[C@@H]([C@@H](C)CC)C(=O)N(C)CC(=O)N(C)[C@H]3CCCCN(C3=O)[C@@H](Cc3ccc(C(F)(F)F)cc3)C(=O)N(C)CC(=O)N[C@@H](CCc3cc(F)c(C(F)(F)F)c(F)c3)C(=O)N2C1 [PP0693] | – | – | C (A compound having a KD ratio of 0.1 or more and less than 3 is denoted as C) | C (A compound having a KD ratio of 0.1 or more and less than 3 is denoted as C)
